Values of other authors, collected in patent US20090227460A1, “STABILIZED OIL-IN-WATER EMULSIONS INCLUDING MEPTYL DINOCAP” (Dow AgroSciences LLC, priority 2008, published 2009).

Substance: 2,6-dinitro-4-octylphenyl crotonates and 2,4-dinitro-6-octylphenyl crotonates in which ‘octyl’ is a mixture of 1-methylheptyl, 1-ethylhexyl and 1-propylpentyl groups [Meptyl Dinocap]
- solubility in water: 0.151 µg/mL
